Test results as given in ChEMBL document CHEMBL5137064, “Therapeutic Potential and Activity Modulation of the Protein Lysine Deacylase Sirtuin 5” (J Med Chem, 2022).
*1 amine or outer side, *2 acyl side, *3 side chain or, on linkers, in order; H or OH if unused. Where a SMILES comes first, the peptide text is derived from it. Bridges are numbered along the chain shown (N, C = ends). Side-chain parts run from the residue outwards. [ ]: non-standard residue; d: D form. The star is where a group is joined. X1 = O=C(O)CCNC(=S)NCCCC[C@H](N[*:1])C(=O)[*:2]; Heptanedioyl = O=C(CCCCCC(=O)[*:2])[*:1]; βAsp = O=C(O)[C@H](CC(=O)[*:2])N[*:1]; X2 = CC(CC(=O)*)(C(=O)O)c1ccccc1; Cbz = O=C(OCc1ccccc1)*; Bz = O=C(c1ccccc1)*

What was measured:
[1] = target: T1, NAD-dependent protein deacylase sirtuin-5, mitochondrial (Homo sapiens, UniProt Q9NXA8); assay: Inhibition of human recombinant SIRT5 using fluorogenic Benzyl-Lys(Succinyl)-AMC as substrate incubated for 2 hrs measured by fluoroscence based microplate reader method
[2] = target: T1, NAD-dependent protein deacylase sirtuin-5, mitochondrial; assay: Binding affinity to SIRT5 (unknown origin) assessed as desuccinylation activity by measuring dissociation constant
[3] = target: T1, NAD-dependent protein deacylase sirtuin-5, mitochondrial; assay: Binding affinity to SIRT5 (unknown origin) assessed as desuccinylation activity by measuring inhibition constant
[4] = target: T1, NAD-dependent protein deacylase sirtuin-5, mitochondrial; assay: Inhibition of SIRT5 deglutarylase activity (unknown origin)
[5] = target: T1, NAD-dependent protein deacylase sirtuin-5, mitochondrial; assay: Inhibition of SIRT5 desuccinylase activity (unknown origin) using succinyl-lysine as substrate
[6] = target: T2, NAD-dependent protein deacetylase sirtuin-1 (Homo sapiens, UniProt Q96EB6); assay: Inhibition of His6-tagged SIRT1 (unknown origin) desuccinylase activity incubated for 10 mins by HPLC based assay
T2 sequence (Q96EB6 whole entry): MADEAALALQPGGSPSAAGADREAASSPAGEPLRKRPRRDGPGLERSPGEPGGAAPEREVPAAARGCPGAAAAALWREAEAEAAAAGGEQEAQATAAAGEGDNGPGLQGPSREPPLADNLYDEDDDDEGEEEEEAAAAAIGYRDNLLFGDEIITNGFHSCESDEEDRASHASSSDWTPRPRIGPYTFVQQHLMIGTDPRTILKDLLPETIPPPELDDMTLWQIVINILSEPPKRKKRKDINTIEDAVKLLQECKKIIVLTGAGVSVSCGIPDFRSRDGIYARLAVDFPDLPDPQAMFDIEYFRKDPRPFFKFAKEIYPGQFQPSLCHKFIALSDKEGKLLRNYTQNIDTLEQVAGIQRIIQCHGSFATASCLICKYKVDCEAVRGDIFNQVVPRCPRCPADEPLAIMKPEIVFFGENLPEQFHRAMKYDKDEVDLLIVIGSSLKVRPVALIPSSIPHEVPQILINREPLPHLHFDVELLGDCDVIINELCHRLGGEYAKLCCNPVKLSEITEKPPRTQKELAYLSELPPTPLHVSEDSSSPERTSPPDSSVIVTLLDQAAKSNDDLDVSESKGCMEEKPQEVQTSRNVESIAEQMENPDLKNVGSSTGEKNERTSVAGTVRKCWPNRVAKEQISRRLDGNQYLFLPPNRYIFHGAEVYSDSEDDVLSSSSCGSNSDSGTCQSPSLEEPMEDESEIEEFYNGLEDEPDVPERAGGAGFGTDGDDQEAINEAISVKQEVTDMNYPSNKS

[7] = target: T3, NAD-dependent protein deacetylase sirtuin-2 (Homo sapiens, UniProt Q8IXJ6); assay: Inhibition of His6-tagged SIRT2 (unknown origin) desuccinylase activity incubated for 12 mins by HPLC based assay
T3 sequence (Q8IXJ6 whole entry): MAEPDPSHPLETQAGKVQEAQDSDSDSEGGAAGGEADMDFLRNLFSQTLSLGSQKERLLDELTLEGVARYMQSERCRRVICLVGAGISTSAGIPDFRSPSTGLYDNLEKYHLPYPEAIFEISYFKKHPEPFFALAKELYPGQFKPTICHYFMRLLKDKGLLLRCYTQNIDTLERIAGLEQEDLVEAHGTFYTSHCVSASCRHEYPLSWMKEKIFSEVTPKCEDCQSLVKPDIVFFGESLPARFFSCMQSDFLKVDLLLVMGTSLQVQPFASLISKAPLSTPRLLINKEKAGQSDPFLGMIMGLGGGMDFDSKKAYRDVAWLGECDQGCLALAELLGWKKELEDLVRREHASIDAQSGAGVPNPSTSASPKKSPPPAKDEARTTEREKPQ

[8] = target: T4, NAD-dependent protein deacetylase sirtuin-3, mitochondrial (Homo sapiens, UniProt Q9NTG7); assay: Inhibition of His6-tagged SIRT3 (unknown origin) desuccinylase activity incubated for 10 mins by HPLC based assay
T4 sequence (Q9NTG7 whole entry): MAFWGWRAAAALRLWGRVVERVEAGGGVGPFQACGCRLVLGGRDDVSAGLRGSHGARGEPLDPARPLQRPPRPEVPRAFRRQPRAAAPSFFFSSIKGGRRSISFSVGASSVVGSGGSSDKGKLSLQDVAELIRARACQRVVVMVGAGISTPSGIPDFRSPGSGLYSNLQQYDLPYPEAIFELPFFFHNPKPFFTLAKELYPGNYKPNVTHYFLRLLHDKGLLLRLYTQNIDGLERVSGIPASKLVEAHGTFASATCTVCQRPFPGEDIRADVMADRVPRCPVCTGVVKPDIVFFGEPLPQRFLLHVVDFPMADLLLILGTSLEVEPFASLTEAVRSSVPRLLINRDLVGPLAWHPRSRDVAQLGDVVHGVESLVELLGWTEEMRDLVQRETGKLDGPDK

[9] = target: NAD-dependent protein deacylase sirtuin-6 (Homo sapiens, UniProt Q8N6T7); assay: Inhibition of His6-tagged SIRT6 (unknown origin) desuccinylase activity incubated for 12 mins by HPLC based assay
[10] = target: T1, NAD-dependent protein deacylase sirtuin-5, mitochondrial; assay: Inhibition of GST-tagged SIRT5 desuccinylase activity (unknown origin) incubated for 5 mins by HPLC based assay
[11] = target: T5, NAD-dependent protein deacetylase sirtuin-1 (Homo sapiens) (UniProt Q96EB6); assay: Inhibition of SIRT1 (unknown origin) at 10 uM relative to control
T5 sequence (whole entry): T2 sequence (Q96EB6 whole entry)

[12] = target: T1, NAD-dependent protein deacylase sirtuin-5, mitochondrial; assay: Binding affinity to SIRT5 (unknown origin) assessed as deglutarylase activity by measuring inhibition constant
MOLM-13 = assay: Cytotoxicity against human MOLM-13 cells; type: functional, cell-based
SKM-1 [13] = assay: Induction of apoptosis in human SKM-1 cells at 20 uM relative to control; type: functional
OCI-AML2 [14] = assay: Induction of apoptosis in human OCI-AML2 cells at 20 uM relative to control; type: functional
OCI-AML2 [15] = assay: cells; details: Homo sapiens
Description: Cytotoxicity against human OCI-AML2 cells

SKM-1 [16] = assay: cells; details: Homo sapiens
Description: Cytotoxicity against human SKM-1 cells

OCI-AML2 [17] = assay: Induction of apoptosis in human OCI-AML2 cells at 10 uM relative to control; type: functional
SKM-1 [18] = assay: Induction of apoptosis in human SKM-1 cells at 5 uM relative to control; type: functional
[19] = target: T1, NAD-dependent protein deacylase sirtuin-5, mitochondrial; assay: Inhibition of SIRT5 activity (unknown origin)
[20] = target: T5, NAD-dependent protein deacetylase sirtuin-1 (Homo sapiens); assay: Inhibition of SIRT1 (unknown origin) at 50 uM relative to control
[21] = target: T6, NAD-dependent protein deacetylase sirtuin-2 (Homo sapiens) (UniProt Q8IXJ6); assay: Inhibition of SIRT2 (unknown origin) at 50 uM relative to control
T6 sequence (whole entry): T3 sequence (Q8IXJ6 whole entry)

[22] = target: T7, NAD-dependent protein deacetylase sirtuin-3, mitochondrial (Homo sapiens) (UniProt Q9NTG7); assay: Inhibition of SIRT3 (unknown origin) at 50 uM relative to control
T7 sequence (whole entry): T4 sequence (Q9NTG7 whole entry)

T1 sequence (Q9NXA8 whole entry): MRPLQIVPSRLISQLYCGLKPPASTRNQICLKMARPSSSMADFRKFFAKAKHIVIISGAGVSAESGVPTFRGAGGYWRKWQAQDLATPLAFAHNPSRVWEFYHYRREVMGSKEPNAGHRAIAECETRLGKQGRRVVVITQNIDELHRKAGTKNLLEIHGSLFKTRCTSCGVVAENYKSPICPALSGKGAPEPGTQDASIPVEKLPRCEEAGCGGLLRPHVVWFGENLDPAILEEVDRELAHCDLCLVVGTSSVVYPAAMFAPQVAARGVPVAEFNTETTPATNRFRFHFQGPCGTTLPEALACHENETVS
NAD-dependent protein deacylase sirtuin-6, sequence (Q8N6T7 whole entry): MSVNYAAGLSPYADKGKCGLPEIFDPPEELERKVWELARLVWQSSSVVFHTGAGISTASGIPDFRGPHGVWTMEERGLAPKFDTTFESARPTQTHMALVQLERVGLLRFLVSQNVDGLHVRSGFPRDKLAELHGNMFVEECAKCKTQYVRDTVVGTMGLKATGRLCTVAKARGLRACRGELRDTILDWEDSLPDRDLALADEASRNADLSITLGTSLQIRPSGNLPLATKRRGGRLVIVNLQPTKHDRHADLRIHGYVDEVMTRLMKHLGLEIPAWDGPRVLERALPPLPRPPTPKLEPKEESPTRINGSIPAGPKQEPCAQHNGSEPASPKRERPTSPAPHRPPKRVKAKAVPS

Which IC50 [1] does the source give for `N#C/C(=C\c1ccc(-c2ccc(C(=O)O)cc2)o1)C(=O)Nc1ccc(C#N)c(C(F)(F)F)c1` here?
The IC50 was 13.9 µM.

How did the Kd [2] turn out when `CC(C)C[C@H](NC(=O)[C@@H](NC(=O)CNC(=O)c1ccccc1)C(C)C)C(=O)N[C@@H](CCCCNC(=O)C[C@H](NC(=O)OCc1ccccc1)C(=O)O)C(=O)N[C@@H](CCC(=O)O)C(=O)N[C@@H](Cc1ccc(O)cc1)C(=O)NCC(=O)N[C@H](C(N)=O)C(C)C` (Bz-GVLK([βAsp-Cbz])EYGV-NH2) was run?
Its Kd is 5.78 µM.

And the Ki [3]?
Its Ki is 38.1 µM.

Which IC50 [4] does the source give for `O=C(O)CCNC(=S)NCCCC[C@H](NS(=O)(=O)c1cccc(F)c1)C(=O)N[C@@H](Cc1c[nH]c2ccccc12)C(=O)NC1CCCC1` here?
Its IC50 is 0.23 µM.

With `Cc1ccc(NC(=O)/C(C#N)=C/c2ccc(-c3cccc(C(=O)O)c3)o2)cc1C` as the compound, how does the IC50 [1] read?
Its IC50 is 101 µM.

With `Cc1cc(C)cc(NC(=O)/C(C#N)=C/c2ccc(-c3ccc(C(=O)O)cc3)o2)c1` as the compound, how does the IC50 [1] read?
Its IC50 is 37.9 µM.

For `N=C(N)NCCC[C@@H]1NC(=O)CCCCC(=O)NCCCC[C@@H](C(N)=O)NC(=O)[C@H](CCCCNC(=S)NCCC(=O)O)NC1=O`, which IC50 [5] is on record?
Its IC50 is 6.5 µM.

With `CC(=O)N[C@H]1CCCCNC(=O)CCCCCC(=O)NCCCC[C@@H](C(=O)N[C@H](C(N)=O)[C@@H](C)O)NC(=O)[C@H](CCCCNC(=S)NCCC(=O)O)NC(=O)[C@H](CCCNC(=N)N)NC1=O` (Ac-KR[X1]KT-NH2; linker 1-4 via Heptanedioyl) as the compound, how does the IC50 [6] read?
The IC50 was over 1000 µM.

What about the IC50 [7] of the same compound?
The IC50 was over 1000 µM.

And the IC50 [8]?
The IC50 was over 1000 µM.

What about the IC50 [9] of the same compound?
The IC50 was over 1000 µM.

What about the IC50 [10] of the same compound?
Its IC50 is 7.5 µM.

What does the source list for `O=C(NC1CCC1)[C@H](Cc1c[nH]c2ccccc12)NC(=O)[C@H](CCCCNC(=S)NCCc1noc(=O)[nH]1)NS(=O)(=O)c1cccc(F)c1`?
IC50 [4]: ≤ 0.05 µM; inhibition [11]: 37%

What does the source list for `O=C(O)CCNC(=S)NCCCC[C@H](NS(=O)(=O)c1cccc(F)c1)C(=O)N[C@@H](Cc1c[nH]c2ccccc12)C(=O)NC1CCC1`?
Ki [12]: 0.006 µM; IC50 (MOLM-13): 29 µM; Activity (SKM-1 [13]): >80%; Activity (OCI-AML2 [14]): 25%; IC50 (OCI-AML2 [15]): > 20 µM; IC50 (SKM-1 [16]): 10 µM

Which Activity (OCI-AML2 [17]) does the source give for `CC(C)NC(=O)[C@H](Cc1c[nH]c2ccccc12)NC(=O)[C@H](CCCCNC(=S)NCCC(=O)O)NC(=O)OCc1ccccc1` here?
The Activity was over 80%.

What about the Activity (SKM-1 [18]) of the same compound?
Its Activity is over 80%.

How did the IC50 [19] turn out when `O=C(NC1CCC1)[C@H](Cc1c[nH]c2ccccc12)NC(=O)[C@H](CCCCNC(=S)NCc1nnn[nH]1)NS(=O)(=O)c1cccc(F)c1` was run?
The IC50 was 5.1 µM.

`N=C(N)NCCC[C@@H]1NC(=O)CCCCCCC(=O)NCCCC[C@@H](C(N)=O)NC(=O)[C@H](CCCCNC(=S)NCCC(=O)O)NC1=O` was tested. Which IC50 [5] did it give?
Its IC50 is 2.2 µM.

With `CC(C)C[C@H](NC(=O)[C@@H](NC(=O)CNC(=O)c1ccccc1)C(C)C)C(=O)N[C@@H](CCCCNC(=O)CC(C)(C(=O)O)c1ccccc1)C(=O)N[C@@H](CCC(=O)O)C(=O)N[C@@H](Cc1ccc(O)cc1)C(=O)NCC(=O)N[C@H](C(N)=O)C(C)C` (stereo not given in full) (Bz-GVLK(X2)EYGV-NH2) as the compound, how does the Ki [3] read?
Its Ki is 4.3 µM.

And the inhibition [20]?
Its inhibition is under 1%.

And the inhibition [21]?
Its inhibition is 4%.

And the inhibition [22]?
The inhibition was under 1%.

How did the IC50 [4] turn out when `O=C(NC1CCC1)[C@H](Cc1c[nH]c2ccccc12)NC(=O)[C@H](CCCCNC(=S)NCCc1nnn[nH]1)NS(=O)(=O)c1cccc(F)c1` was run?
The IC50 was at most 0.05 µM.

What about the Ki [12] of the same compound?
The Ki was 0.0005 µM.
